# According to patent US20110097324A1, “COMPOSITIONS AND METHODS FOR MODULATING NICOTINIC/NMDA RECEPTOR FUNCTION” (CENTRE FOR ADDICTION AND MENTAL HEALTH, priority 2008, published 2011):
# How the values were obtained:
# [1] = system: cultured hippocampal neurons; assay type: cell-based, rat; details: for mEPSC amplitude 30 min after treatment: glycine 200 μM 3 min, choline 1 mM, AP5 100 μM
# Description: Primary cultures from hippocampus were prepared from fetal Wistar rats (embryonic day 17-19) on Cell+ (Sarstedt) culture dishes as previously described in (10). The cultures were used for experiments on 12-15 d after plating.
# Miniature excitatory postsynaptic currents (mEPSCs) were recorded from cultured hippocampal neurons 2 to 4 weeks days after plating under whole-cell patch clamp configuration (11). Electrodes (3-5 MΩ) were pulled from high lead pipettes (Corning 8161, Warner Instruments). Cells were voltage clamped at −70 mV. Access resistance is below 10 MΩ, recordings with access resistance varying more than 10% were rejected from analysis.
# To determine whether activation of α7-nAchR is physiologically relevant in regulating synaptic strength, we examined the ability of α7-nAchR activation to modulate miniature excitatory postsynaptic currents (mEPSCs) during LTP in primary cultures of hippocampal neurons. mEPSCs in hippocampal neurons were recorded under whole-cell configuration. […] The cells were held at −70 mV to avoid potential interference by voltage-gated Ca^++ channels (12,13).
# NMDA receptor = assay type: cell-based, rat
# CREB = assay type: cell-based, rat
# Description: To confirm that α7 nAChR is responsible for the observed activation of CREB, we measured CREB activity in HEK-293 cells expressing α7 nAChR.
# [2] = molecular target: α7-nAchR-NR2A interaction (Rattus norvegicus, UniProt Q00959+Q05941); assay type: cell-based
# α7-nAchR-NR2A interaction, sequence (Q05941 23-502, other chains not shown): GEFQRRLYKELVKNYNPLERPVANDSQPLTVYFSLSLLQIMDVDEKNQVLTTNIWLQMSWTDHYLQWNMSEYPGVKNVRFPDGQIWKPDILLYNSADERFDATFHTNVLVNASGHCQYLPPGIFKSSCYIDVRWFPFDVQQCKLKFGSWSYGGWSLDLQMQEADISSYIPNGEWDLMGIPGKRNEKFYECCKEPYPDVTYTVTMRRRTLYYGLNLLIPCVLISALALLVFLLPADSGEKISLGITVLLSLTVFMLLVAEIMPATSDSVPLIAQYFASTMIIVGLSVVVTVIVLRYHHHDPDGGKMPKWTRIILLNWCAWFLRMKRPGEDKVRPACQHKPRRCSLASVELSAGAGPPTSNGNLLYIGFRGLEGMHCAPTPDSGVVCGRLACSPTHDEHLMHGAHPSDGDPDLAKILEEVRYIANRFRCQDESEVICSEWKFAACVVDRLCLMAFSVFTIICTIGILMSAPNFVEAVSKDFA
# α7-nAchR-NR2A interaction, sequence (Q00959 20-1464, other chains not shown): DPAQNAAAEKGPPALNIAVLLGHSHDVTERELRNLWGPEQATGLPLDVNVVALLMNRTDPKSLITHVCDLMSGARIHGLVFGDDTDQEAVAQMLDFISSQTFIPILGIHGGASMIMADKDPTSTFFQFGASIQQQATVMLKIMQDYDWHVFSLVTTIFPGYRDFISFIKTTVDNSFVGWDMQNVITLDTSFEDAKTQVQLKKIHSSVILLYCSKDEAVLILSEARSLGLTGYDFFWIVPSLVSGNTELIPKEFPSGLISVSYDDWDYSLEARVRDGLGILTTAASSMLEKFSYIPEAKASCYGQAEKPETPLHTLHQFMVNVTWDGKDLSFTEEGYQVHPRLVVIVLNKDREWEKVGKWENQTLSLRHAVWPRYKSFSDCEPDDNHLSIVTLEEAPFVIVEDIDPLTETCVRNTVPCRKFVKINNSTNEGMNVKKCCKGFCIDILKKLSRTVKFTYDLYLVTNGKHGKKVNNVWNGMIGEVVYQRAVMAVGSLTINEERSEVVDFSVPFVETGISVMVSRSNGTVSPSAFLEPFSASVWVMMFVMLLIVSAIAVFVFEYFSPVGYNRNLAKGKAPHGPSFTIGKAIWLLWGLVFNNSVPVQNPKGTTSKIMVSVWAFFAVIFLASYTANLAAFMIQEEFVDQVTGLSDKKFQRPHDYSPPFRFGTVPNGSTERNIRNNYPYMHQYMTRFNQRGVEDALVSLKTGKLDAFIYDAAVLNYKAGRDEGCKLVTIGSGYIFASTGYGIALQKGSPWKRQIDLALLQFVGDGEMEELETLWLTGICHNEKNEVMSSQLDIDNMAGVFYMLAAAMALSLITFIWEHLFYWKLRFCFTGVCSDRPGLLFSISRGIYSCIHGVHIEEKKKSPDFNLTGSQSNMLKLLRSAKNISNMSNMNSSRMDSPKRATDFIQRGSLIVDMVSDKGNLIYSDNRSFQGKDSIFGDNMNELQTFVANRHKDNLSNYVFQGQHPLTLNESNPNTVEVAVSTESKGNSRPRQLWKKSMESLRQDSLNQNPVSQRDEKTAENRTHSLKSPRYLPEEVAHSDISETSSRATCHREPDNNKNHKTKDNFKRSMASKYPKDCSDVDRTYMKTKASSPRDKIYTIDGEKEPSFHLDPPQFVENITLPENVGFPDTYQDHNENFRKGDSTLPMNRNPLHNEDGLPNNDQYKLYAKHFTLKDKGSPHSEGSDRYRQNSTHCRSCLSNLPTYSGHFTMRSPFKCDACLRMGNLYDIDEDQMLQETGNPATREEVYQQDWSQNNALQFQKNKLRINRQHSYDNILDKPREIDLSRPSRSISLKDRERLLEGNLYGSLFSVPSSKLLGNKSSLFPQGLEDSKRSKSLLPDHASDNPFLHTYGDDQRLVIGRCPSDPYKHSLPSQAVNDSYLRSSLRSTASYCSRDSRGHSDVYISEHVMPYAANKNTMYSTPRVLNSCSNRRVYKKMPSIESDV
# Description: To examine the effect of α7-nAchR activation on the interaction between α7-nAchR and NMDA receptors, we examined the ability of antibody against NR2A subunit to co-precipitate with the α7-nAchR in hippocampal primary culture treated with 1 mM choline or choline/NMDA (50 μM).
# α7 nAChR: NR2A complex = details: in vivo, 6 mg/kg/day
# Description: Thus, we pretreated rats with either nicotine or saline for 7 days subdermally (osmotic mini-pump, 6 mg/kg/day), and the expression of NR2A and α7 nAChR was examined in Western blot analysis.
molecule,measurement,setting,value
NC(CCCP(=O)(O)O)C(=O)O (stereo not drawn) [AP5],effect on amplitude of mEPSCs,[1],can be abolished
C[C@]12N[C@H](Cc3ccccc31)c1ccccc12 [MK-801],block of enhancement of whole cell current induced by co-application of choline with NMDA,NMDA receptor,can be blocked
CCN1C[C@]2(COC(=O)c3ccccc3N3C(=O)C[C@H](C)C3=O)CC[C@H](OC)[C@@]34[C@@H]5C[C@H]6[C@H](OC)[C@@H]5[C@](O)(C[C@@H]6OC)[C@](O)([C@@H](OC)[C@H]23)[C@@H]14 [MLA],block of nicotine-enhanced CREB activity,CREB,can be blocked
"CN[C@H](CC(=O)O)C(=O)O [NMDA, N-methyl-D-aspartate]",α7-nAchR-NR2A interaction after treatment,[2],no significant effect
C[N+](C)(C)CCO [choline],mEPSC amplitude 30 min after treatment,[1],31.4+/−2.7 pA
NCC(=O)O [glycine],mEPSC amplitude 30 min after treatment,[1],26.5+/−2.3 pA
CN1CCCC1c1cccnc1 (stereo not drawn) [nicotine],expression of NR2A or α7 nAChR in rat hippocampus,α7 nAChR: NR2A complex,no significant difference
same,α7 nAChR: NR2A complex formation in rat hippocampus,α7 nAChR: NR2A complex,significantly enhanced
α-bungarotoxin,block of enhancement of whole cell current induced by co-application of choline with NMDA,NMDA receptor,can abolish the choline induced upregulation of NMDA-mediated current
